Data from US20140249135A1, “PIM KINASE INHIBITORS AND METHODS OF THEIR USE” (NOVARTIS AG, priority 2007, published 2014).
“And” between values parts separate entries of the source, which are not always exact repeats. Identical values can stand only once.

Assays:
Pim2 kinase = Pim2 kinase (Homo sapiens, UniProt Q9P1W9); test: Pim2 ATP depletion assay; assay type: biochemical; details: read-out: IC50 (μM) PIM2;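 note: Luciferase-based luminescent readout of ATP remaining after PIM2 phosphorylates a BAD peptide, final 5 nM enzyme, 4 µM ATP, 10 µM peptide, 2.5% DMSO, run to roughly half ATP consumption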
Pim3 kinase = Pim3 kinase (Homo sapiens, UniProt Q86V86); test: Pim3 ATP depletion assay; assay type: biochemical; details: read-out: IC50 (μM) PIM3
Pim1 kinase = Pim1 kinase (Homo sapiens, UniProt P11309); test: Pim1 ATP depletion assay; assay type: biochemical; details: Pim1 ATP depletion assay; read-out: IC50 (μM) PIM1;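 note: Luciferase-luciferin luminescence readout of residual ATP after PIM1 transfers phosphate to a peptide substrate, 40 µM ATP added, reaction run to roughly half ATP consumption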
KDR kinase = KDR kinase (Homo sapiens, UniProt P35968); test: KDR AlphaScreen assay; details: KDR IC50 (μM)
[1] = molecular target: T1, human full length PKCE enzyme (Homo sapiens, UniProt Q02156); test: In vitro PKCE assay; assay type: biochemical; details: 10 nM enzyme, 40 uM peptide substrate, 20 uM ATP, KinaseGlo Plus readout; read-out: PKCε IC50
T1 construct: human full length PKCE enzyme purchased from InVitrogen; purchased InVitrogen
T1 sequence (Q02156 1-737): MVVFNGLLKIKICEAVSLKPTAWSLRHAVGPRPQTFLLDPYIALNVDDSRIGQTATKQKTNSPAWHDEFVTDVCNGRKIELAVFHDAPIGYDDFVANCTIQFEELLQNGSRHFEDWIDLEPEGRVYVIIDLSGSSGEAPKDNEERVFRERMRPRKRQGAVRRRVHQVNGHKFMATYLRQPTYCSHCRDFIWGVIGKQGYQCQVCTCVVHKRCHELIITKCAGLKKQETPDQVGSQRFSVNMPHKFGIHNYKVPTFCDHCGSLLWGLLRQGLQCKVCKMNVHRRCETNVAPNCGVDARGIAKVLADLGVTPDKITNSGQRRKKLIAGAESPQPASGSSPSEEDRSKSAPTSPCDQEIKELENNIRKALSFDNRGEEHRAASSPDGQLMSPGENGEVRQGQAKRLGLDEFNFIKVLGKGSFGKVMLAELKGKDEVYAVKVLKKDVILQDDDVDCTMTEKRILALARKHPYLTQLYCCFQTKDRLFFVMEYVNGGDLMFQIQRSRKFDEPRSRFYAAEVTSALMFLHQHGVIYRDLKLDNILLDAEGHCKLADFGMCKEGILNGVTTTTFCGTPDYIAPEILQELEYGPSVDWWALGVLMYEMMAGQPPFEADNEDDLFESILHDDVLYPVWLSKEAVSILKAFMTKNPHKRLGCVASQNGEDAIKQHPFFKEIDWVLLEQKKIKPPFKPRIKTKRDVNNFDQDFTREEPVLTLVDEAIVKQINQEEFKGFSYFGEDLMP

Sequence of Pim2 kinase (Q9P1W9 whole entry): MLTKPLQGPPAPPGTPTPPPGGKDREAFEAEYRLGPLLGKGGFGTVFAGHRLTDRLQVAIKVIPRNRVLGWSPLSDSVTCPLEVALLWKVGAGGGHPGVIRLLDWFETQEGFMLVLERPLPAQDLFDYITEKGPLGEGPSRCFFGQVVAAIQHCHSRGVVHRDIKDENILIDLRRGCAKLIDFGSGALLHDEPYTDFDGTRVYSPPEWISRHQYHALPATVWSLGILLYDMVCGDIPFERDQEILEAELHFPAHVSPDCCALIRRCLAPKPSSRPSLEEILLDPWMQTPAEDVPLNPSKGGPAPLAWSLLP
Sequence of Pim1 kinase (P11309 whole entry): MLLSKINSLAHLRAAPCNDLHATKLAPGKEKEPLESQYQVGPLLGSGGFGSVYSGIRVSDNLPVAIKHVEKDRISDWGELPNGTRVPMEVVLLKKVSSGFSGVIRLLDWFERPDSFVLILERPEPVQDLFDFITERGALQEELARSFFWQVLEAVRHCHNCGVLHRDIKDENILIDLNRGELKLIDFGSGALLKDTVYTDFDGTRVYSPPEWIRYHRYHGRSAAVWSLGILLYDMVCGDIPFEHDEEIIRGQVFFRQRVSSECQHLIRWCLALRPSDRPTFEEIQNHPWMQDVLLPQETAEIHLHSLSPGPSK
Sequence of KDR kinase (P35968 20-1356): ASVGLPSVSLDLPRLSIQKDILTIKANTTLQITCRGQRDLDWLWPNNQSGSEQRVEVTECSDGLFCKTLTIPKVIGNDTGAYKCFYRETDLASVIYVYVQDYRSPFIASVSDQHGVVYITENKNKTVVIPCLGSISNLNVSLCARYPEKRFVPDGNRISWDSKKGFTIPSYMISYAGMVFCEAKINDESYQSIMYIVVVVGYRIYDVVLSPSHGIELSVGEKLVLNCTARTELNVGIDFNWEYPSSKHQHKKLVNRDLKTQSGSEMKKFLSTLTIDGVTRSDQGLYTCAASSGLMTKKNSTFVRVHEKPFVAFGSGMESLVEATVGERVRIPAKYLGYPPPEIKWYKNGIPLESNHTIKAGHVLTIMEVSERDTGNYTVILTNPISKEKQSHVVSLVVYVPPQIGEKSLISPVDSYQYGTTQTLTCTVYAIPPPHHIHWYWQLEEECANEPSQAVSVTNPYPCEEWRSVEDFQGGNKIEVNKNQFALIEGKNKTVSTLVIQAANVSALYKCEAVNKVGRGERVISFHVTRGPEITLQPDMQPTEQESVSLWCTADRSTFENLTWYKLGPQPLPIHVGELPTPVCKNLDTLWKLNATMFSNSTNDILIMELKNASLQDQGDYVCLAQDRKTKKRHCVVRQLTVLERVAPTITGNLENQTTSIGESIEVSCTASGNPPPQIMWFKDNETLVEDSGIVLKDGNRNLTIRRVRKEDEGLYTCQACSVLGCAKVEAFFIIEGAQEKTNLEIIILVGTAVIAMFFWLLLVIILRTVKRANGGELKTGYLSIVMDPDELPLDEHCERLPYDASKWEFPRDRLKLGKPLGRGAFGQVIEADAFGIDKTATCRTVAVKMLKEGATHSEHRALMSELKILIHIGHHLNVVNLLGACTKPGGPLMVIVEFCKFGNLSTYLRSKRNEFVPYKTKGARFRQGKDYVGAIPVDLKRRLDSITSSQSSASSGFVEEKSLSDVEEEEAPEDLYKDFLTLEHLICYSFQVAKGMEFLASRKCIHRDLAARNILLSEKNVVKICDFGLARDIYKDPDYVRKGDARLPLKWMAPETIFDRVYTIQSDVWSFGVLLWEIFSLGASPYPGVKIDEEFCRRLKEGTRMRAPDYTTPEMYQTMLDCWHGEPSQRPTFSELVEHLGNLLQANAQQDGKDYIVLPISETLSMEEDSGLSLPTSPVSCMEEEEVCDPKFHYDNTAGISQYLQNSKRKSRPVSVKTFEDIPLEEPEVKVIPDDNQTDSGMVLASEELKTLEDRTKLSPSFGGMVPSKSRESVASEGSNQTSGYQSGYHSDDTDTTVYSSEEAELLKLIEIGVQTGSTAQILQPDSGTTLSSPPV

Row | Structure (SMILES) | IC50 (Pim2 kinase) [µM] | IC50 (Pim3 kinase) | IC50 (Pim1 kinase) [µM] | IC50 (KDR kinase) [µM] | IC50 [1] [µM]
1 | COc1nc(N)ncc1-c1ccc(N)c(C(=O)Nc2cnccc2N2CCC[C@H](N)C2)n1 [Example 485, 3-Amino-6-(2-amino-4-methoxy-pyrimidin-5-yl)-pyridine-2-carboxylic acid (3-amino-3,4,5,6-tetrahydro-2H-[1,4′]bipyridinyl-3′-yl)-amide] | < 1 | < 1 µM | < 1 | 10 to 25 | > 25
2 | Nc1ncc(-c2ccccc2F)nc1C(=O)Nc1cc(C(=O)c2ccccc2)ccc1N1CCC(N)CC1 [Example 439, 3-amino-6-(2-fluoro-phenyl)-pyrazine-2-carboxylic acid [2-(4-amino-piperidin-1-yl)-5-benzoyl-phenyl]-amide] | > 25 | 1 to 10 µM | 1 to 10 | 1 to 10 | 1 to 10
3 | Nc1nccnc1C(=O)Nc1cnccc1N1CCCNCC1 [Example 199, 3-amino-N-[4-(1,4-diazepan-1-yl)pyridin-3-yl]pyrazine-2-carboxamide] | > 25 | > 25 µM and 10 to 25 µM | 1 to 10 | 1 to 10 | 1 to 10
4 | Nc1nccnc1C(=O)Nc1cnccc1Cl [Example 125, 3-amino-N-(4-chloropyridin-3-yl)pyrazine-2-carboxamide] | > 25 | 10 to 25 µM | 1 to 10 | 1 to 10 | 10 to 25
5 | Cc1ccc(-c2ccc(N)c(C(=O)Nc3cnccc3N3CCC[C@H](N)C3)n2)c(F)c1 [Example 406, (S)-3-amino-N-(4-(3-aminopiperidin-1-yl)pyridin-3-yl)-6-(2-fluoro-4-methylphenyl)picolinamide] | < 1 | < 1 µM | < 1 | > 25 | 1 to 10
6 | Nc1ccc(-c2cnc(N)c(C(F)(F)F)c2)nc1C(=O)Nc1cnccc1N1CCC[C@H](N)C1 [Example 482, 5,6′-Diamino-5′-trifluoromethyl-[2,3′]bipyridinyl-6-carboxylic acid (3-amino-3,4,5,6-tetrahydro-2H-[1,4′]bipyridinyl-3′-yl)-amide] | < 1 | < 1 µM | < 1 | 10 to 25 | > 25
7 | NC(=O)c1cccc(-c2cnc(N)c(C(=O)Nc3ccccc3N3CCC(N)CC3)n2)c1 [Example 380, 3-amino-6-(3-carbamoyl-phenyl)-pyrazine-2-carboxylic acid [2-(4-amino-piperidin-1-yl)-phenyl]-amide] | 1 to 10 | < 1 µM | < 1 | < 1 | < 1
8 | Nc1ncc(-c2ccccc2)nc1C(=O)Nc1cc(C(=O)c2ccccc2)ccc1N1CCCC(N)C1 (stereo not drawn) [Example 435, 3-amino-6-phenyl-pyrazine-2-carboxylic acid [2-(3-amino-piperidin-1-yl)-5-benzoyl-phenyl]-amide] | 1 to 10 | 1 to 10 µM | 1 to 10 | < 1 | 10 to 25
9 | Nc1cc(C(F)(F)F)c(-c2ccc(N)c(C(=O)Nc3cnccc3N3CCC[C@H](N)C3)n2)cn1 [Example 483, 5,6′-Diamino-4′-trifluoromethyl-[2,3′]bipyridinyl-6-carboxylic acid (3-amino-3,4,5,6-tetrahydro-2H-[1,4′]bipyridinyl-3′-yl)-amide] | < 1 | < 1 µM | < 1 | > 25 | 10 to 25
10 | Cc1ccc(NC(=O)c2nccnc2N)c(N2CCCC(N)C2)c1 (stereo not drawn) [Example 229, 3-amino-N-[2-(3-aminopiperidin-1-yl)-4-methylphenyl]pyrazine-2-carboxamide] | 1 to 10 | < 1 µM | < 1 | > 25 | 1 to 10
11 | Nc1nccnc1C(=O)Nc1cc(C(=O)c2ccccc2)ccc1N1CCCC(N)C1 (stereo not drawn) [Example 231, 3-amino-pyrazine-2-carboxylic acid [2-(3-amino-piperidin-1-yl)-5-benzoyl-phenyl]-amide] | > 25 | 1 to 10 µM | 1 to 10 | 10 to 25 | 10 to 25
12 | Nc1ncc(-c2ccccc2F)nc1C(=O)Nc1ccccc1N1CCNCC1 [Example 383, 3-amino-6-(2-fluoro-phenyl)-pyrazine-2-carboxylic acid (2-piperazin-1-yl-phenyl)-amide] | 1 to 10 | < 1 µM | < 1 | 1 to 10 | < 1
13 | Nc1nc(N)c(C(=O)Nc2[nH]c(=O)ncc2N2CCCC(N)C2)nc1Cl (stereo not drawn) [Example 134, 3,5-diamino-N-[5-(3-amino-piperidin-1-yl)-2-oxo-2,3-dihydropyrimidin-4-yl]-6-chloropyrazine-2-carboxamide] | < 1 | < 1 µM | < 1 | 1 to 10 | 1 to 10
14 | NC(=O)c1cccc(-c2cnc(N)c(C(=O)Nc3cnccc3N3CCNCC3)n2)c1 [Example 361, 3-amino-6-(3-carbamoyl-phenyl)-pyrazine-2-carboxylic acid (4-piperazin-1-yl-pyridin-3-yl)-amide] | < 1 | < 1 µM | < 1 | < 1 | < 1
15 | Nc1ncc(Br)nc1C(=O)Nc1[nH]c(=O)ncc1N1CCCCC1 [Example 132, 3-amino-6-bromo-N-(2-oxo-5-piperidin-1-yl-2,3-dihydro-pyrimidin-4-yl)pyrazine-2-carboxamide] | < 1 | < 1 µM | < 1 | < 1 | < 1
16 | COc1ncccc1-c1cnc(N)c(C(=O)Nc2ccccc2N2CCNCC2)n1 [Example 390, 3-amino-6-(2-methoxy-pyridin-3-yl)-pyrazine-2-carboxylic acid (2-piperazin-1-yl-phenyl)-amide] | > 25 | 1 to 10 µM | < 1 | 1 to 10 | < 1
17 | Cc1cccc(-c2cnc(N)c(C(=O)Nc3ccccc3N3CCNCC3)n2)c1 [Example 388, 3-amino-6-m-tolyl-pyrazine-2-carboxylic acid (2-piper-azin-1-yl-phenyl)-amide] | 1 to 10 | < 1 µM | < 1 | < 1 | < 1
18 | Nc1nccnc1C(=O)Nc1cc(C(=O)c2ccccc2)ccc1N1CCNCC1 [Example 232, 3-amino-pyrazine-2-carboxylic acid (5-benzoyl-2-piperazin-1-yl-phenyl)-amide] | > 25 | 10 to 25 µM | 10 to 25 | 10 to 25 | 10 to 25
19 | Nc1nccnc1C(=O)Nc1cc(C(=O)C2CC2)ccc1N1CCC(N)CC1 [Example 244, 3-amino-pyrazine-2-carboxylic acid [2-(4-amino-piperidin-1-yl)-5-cyclopropanecarbonyl-phenyl]-amide] | 10 to 25 | 1 to 10 µM | 1 to 10 | 10 to 25 | 1 to 10
20 | Cc1ccc(N2CCCC(N)C2)c(NC(=O)c2nccnc2N)c1 (stereo not drawn) [Example 218, 3-amino-N-[2-(3-aminopiperidin-1-yl)-5-methylphenyl]pyrazine-2-carboxamide] | 10 to 25 | < 1 µM | < 1 | > 25 | 1 to 10
21 | Nc1ncc(Br)nc1C(=O)Nc1ccccc1N1CCNCC1 [Example 206, 3-amino-6-bromo-N-(2-piperazin-1-ylphenyl)pyrazine-2-carboxamide] | 1 to 10 | < 1 µM | < 1 | 1 to 10 | < 1
22 | COc1ncc(-c2cnc(N)c(C(=O)Nc3ccccc3N3CCNCC3)n2)cn1 [Example 391, 3-amino-6-(2-methoxy-pyrimidin-5-yl)-pyrazine-2-carboxylic acid (2-piperazin-1-yl-phenyl)-amide] | > 25 | 1 to 10 µM | 1 to 10 | > 25 | 1 to 10
23 | Nc1ncc(-c2ccccc2)nc1C(=O)Nc1cc(C(=O)c2ccccc2)ccc1N1CCC(N)CC1 [Example 436, 3-amino-6-phenyl-pyrazine-2-carboxylic acid [2-(4-amino-piperidin-1-yl)-5-benzoyl-phenyl]-amide] | > 25 | 1 to 10 µM | 1 to 10 | 1 to 10 | 1 to 10
24 | Cc1ccc(NC(=O)c2nccnc2N)c(N2CCNCC2)c1 [Example 227, 3-amino-N-(4-methyl-2-piperazin-1-ylphenyl)pyrazine-2-carboxamide] | > 25 | 1 to 10 µM | 1 to 10 | > 25 | 1 to 10
